The target of experiment [1] is T1, human mGlu5 receptor (CHO T-REx h-mGluR5 cells) (Homo sapiens (Human), UniProt P41594). In words: Radioligand binding assay at cloned mGluR5 ([3H]MPEP displacement). The note with it: 4 nM [3H]MPEP, read-out: h.c. mglu R5 IC50. An excerpt:
(§1) Cell lines stably transfected were generated using inducible expression vectors encoding human mGlu5 receptor using the Tetracycline-Regulated Expression system (T-REx™ system, Invitrogen, Life Technologies). Human mGluR5 open reading frame (ORF), comprehensive of the stop codon, were cloned into the pcDNA4/TO/myc-His™ A vector, carrying the TetO2 sequences. The insertion site was HindIII-PstI for mGluR5 receptors. The obtained constructs were then transfected into the T-REx CHO™ cell line using the FuGENE protocol (Roche); the CHO T-REx™ cell line stably expresses the Tet repressor (from the pcDNA6/TR plasmid) under the selection of blasticidin, 10 μg/ml. Stable clones were obtained selecting with zeocine 1 mg/ml and maintaining in ULTRA CHO medium (LONZA) supplemented with dialyzed FBS, zeocin, blasticidine, at 37° C., in an atmosphere of 5% CO2. The expression of h-mGluR5 receptors was de-repressed with 1 μg/ml tetracycline for 18 h before binding experimentation, while the expression of h-mGluR5 receptors was de-repressed respectively with 3 ng/ml and 10 ng/ml tetracycline for 18 h before calcium fluorescence experimentation.
Affinity at transmembrane glutamate metabotropic mGluR5 receptor subtypes was evaluated according to the methods of Anderson (Anderson et al., J Pharmacol. Exp. Ther., (2002), Vol. 303(3), pp. 1044-51), with some modifications. Cloned mGluR5 was obtained by re-suspending CHO T-REx h-mGluR5 cells (50 μg/well) in 20 mM HEPES, 2 mM MgCl2, 2 mM CaCl2, pH 7.4, that then were incubated in a final volume of 1 ml for 60 min at 25° C. with 4 nM [^3H]MPEP in the absence or presence of competing drugs. Non-specific binding was determined in the presence of […] MPEP. The incubation was stopped by addition of cold Tris buffer pH 7.4 and rapid filtration through 0.2% polyethyleneimine pretreated Filtermat 1204-401 (Perkin Elmer) filters. The filters were then washed with cold buffer and the radioactivity retained on the filters was counted by liquid scintillation spectrometry (Betaplate 1204 BS-Wallac).
(§2) The antagonist potency was determined using the EC80 of the quisqualate used as agonist and the potentiation of mGlu5 activation was determined using the EC20 of the agonist (quisqualate or glutamate). The compounds were applied 10 minutes before the application of the agonist. For binding and calcium assay studies, the compounds were dissolved in DMSO or demineralized water according to their solubility. All the reported doses were those of the corresponding salts or bases.
The inhibition curves of the tested compounds at native and cloned mGluR1 and mGluR5 subtypes were determined by nonlinear regression analysis using software Prism 4.0 (Graphpad, San Diego, Calif.). The IC50 values and pseudo-Hill slope coefficients were estimated by the program. The values for the inhibition constant, Ki, were calculated according to the equation Ki=IC50/(1+[L]/Kd), where [L] is the concentration of radioligand and Kd is the equilibrium dissociation constant of the radioligand-receptor complex (Cheng et al., Biochem. Pharmacol. (1973), Vol. 22, pp. 3099-3108).

Experiment [2] deals with T1, human mGlu5 receptor (CHO T-REx h-mGluR5 cells). The experiment in a line: Calcium fluorescence measurement, potentiation of mGlu5 activation at EC20 of quisqualate. The class given is cell-based. The conditions noted are these: agonist quisqualate.
Source text: as §1
(§3) Cells were seeded into black-walled, clear-bottom, 96-well plates at a density of 80000 cell/well, in RPMI (without Phenol Red, without L-glutamine; Gibco LifeTechnologies, CA) supplemented with 10% dialyzed FBS. Following 18-h incubation with tetracycline, the cells were loaded with […] Ca^2+—sensitive fluorescent dye Fluo-4/AM (Molecular Probes) in Hanks' balanced saline solution (HBSS, Gibco LifeTechnologies, CA) with 20 mM Hepes (Sigma) and 2.5 mM probenecid (Sigma), for 1 h at 37° C. The cells were washed three times with HBSS to remove extracellular dye. Fluorescence signals were measured by using the fluorescence microplate reader Flexstation III (Molecular Devices) at sampling intervals of 1.5 s for 60 s.
as §2

The target is the same in experiment [3]. The experiment in a line: Calcium fluorescence measurement, potentiation of mGlu5 activation at EC20 of glutamate. The note with it: for Fold Increase Glutam. / Fold Increase 1 microM Glutam.: agonist glutamate; for EC50: potentiation, agonist glutamate at EC20, read-out: EC50 nM Glutam. It counts as cell-based.
Source text: as §1, §3, §2

Molecules are shown by their SMILES.

One may read the IC50 as the midpoint of a concentration-inhibition curve. What is called EC50 is the concentration needed to bring the measured effect to its halfway point.

T1 sequence (P41594 21-1212): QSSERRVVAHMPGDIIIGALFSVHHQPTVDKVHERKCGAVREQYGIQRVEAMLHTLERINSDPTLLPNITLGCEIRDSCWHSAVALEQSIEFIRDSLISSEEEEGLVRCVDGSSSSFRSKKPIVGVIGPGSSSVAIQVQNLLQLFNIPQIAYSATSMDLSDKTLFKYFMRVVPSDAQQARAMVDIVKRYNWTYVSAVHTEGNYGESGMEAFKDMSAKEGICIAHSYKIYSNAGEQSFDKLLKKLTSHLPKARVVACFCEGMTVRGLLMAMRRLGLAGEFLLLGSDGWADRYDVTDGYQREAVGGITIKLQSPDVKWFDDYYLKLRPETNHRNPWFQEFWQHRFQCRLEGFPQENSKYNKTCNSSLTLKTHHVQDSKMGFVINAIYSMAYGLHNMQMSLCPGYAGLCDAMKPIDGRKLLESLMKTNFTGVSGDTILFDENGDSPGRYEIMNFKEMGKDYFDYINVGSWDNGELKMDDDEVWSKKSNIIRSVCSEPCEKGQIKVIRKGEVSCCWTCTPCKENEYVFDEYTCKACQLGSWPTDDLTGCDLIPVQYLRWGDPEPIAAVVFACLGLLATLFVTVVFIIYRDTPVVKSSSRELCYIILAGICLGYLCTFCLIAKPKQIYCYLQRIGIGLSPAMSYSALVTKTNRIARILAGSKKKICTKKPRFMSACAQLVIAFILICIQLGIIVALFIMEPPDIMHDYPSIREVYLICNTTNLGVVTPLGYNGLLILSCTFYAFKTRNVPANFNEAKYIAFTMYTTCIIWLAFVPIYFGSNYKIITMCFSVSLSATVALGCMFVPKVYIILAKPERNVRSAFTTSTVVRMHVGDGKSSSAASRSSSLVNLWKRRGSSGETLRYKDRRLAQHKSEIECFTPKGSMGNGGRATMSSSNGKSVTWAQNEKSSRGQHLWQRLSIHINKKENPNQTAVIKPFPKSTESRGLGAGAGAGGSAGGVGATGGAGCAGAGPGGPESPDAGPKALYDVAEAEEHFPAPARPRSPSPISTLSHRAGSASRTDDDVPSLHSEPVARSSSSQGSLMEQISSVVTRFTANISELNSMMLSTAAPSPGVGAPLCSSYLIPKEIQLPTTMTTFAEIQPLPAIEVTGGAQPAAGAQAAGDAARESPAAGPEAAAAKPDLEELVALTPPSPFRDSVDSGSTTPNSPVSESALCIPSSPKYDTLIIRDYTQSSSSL

In the case of `CCN(C(=O)N1CCC2C(C#Cc3cccc(Cl)c3)=NOC21)C(C)C` (stereo not drawn) [Example 4, 3-[2-(3-chlorophenyl)ethynyl]-N-ethyl-N-isopropyl-3a,4,5,6a-tetrahydropyrrolo[3,2-d]isoxazole-6-carboxamide], the IC50 in experiment [1] came to 6.99 nM.
Regarding `Cc1cccc(C#CC2=NOC3C2CCN3C(=O)OC(C)(C)C)n1` (stereo not drawn) [Example 5, tert-butyl 3-[2-(6-methyl-2-pyridyl)ethynyl]-3a,4,5,6a-tetrahydropyrrolo[3,2-d]isoxazole-6-carboxylate], in experiment [1], the 50% inhibitory concentration (IC50) was 708 nM. Moreover, in experiment [2], the “Fold Inc. Quisq.” value was 0 fold.
For the compound `Cc1cccc(C#CC2=NOC3C2CCN3C(=O)N2CCCCC2)c1` (stereo not drawn) [Example 12, [3-[2-(m-tolyl)ethynyl]-3a,4,5,6a-tetrahydropyrrolo[3,2-d]isoxazol-6-yl]-(1-piperidyl)methanone], the IC50 in experiment [1] was 10.6 nM.
Consider `CCOC(=O)N1CCC2C(C#Cc3cccc(C)c3)=NOC21` (stereo not drawn) [Example 16, ethyl 3-[2-(m-tolyl)ethynyl]-3a,4,5,6a-tetrahydropyrrolo[3,2-d]isoxazole-6-carboxylate], for which the IC50 in experiment [1] came out at 152 nM.
In the case of `Cc1cccc(C#CC2=NOC3C2CCN3C(=O)N2CCCCC2)n1` (stereo not drawn) [Example 17, [3-[2-(6-methyl-2-pyridyl)ethynyl]-3a,4,5,6a-tetrahydropyrrolo[3,2-d]isoxazol-6-yl]-(1-piperidyl)methanone], the IC50 in experiment [1] was more than 1000 nM. For the same compound, the “Fold Inc. Quisq.” value in experiment [2] was found to be 1.27 fold.
Consider `Cc1cccc(C#CC2=NOC3C2CCN3C(=O)N2CCOCC2)n1` (stereo not drawn) [Example 18, [3-[2-(6-methyl-2-pyridyl)ethynyl]-3a,4,5,6a-tetrahydropyrrolo[3,2-d]isoxazol-6-yl]-morpholino-methanone], for which, in experiment [1], the IC50 is more than 1000 nM.
The same measure, in the same setting: the result for `CON(C)C(=O)N1CCC2C(C#Cc3cccc(C)n3)=NOC21` (stereo not drawn) [Example 19, N-methoxy-N-methyl-3-[2-(6-methyl-2-pyridyl)ethynyl]-3a,4,5,6a-tetrahydropyrrolo[3,2-d]isoxazole-6-carboxamide] reads 239 nM.
For the compound `CCOC(=O)N1CCC2C(C#Cc3cccc(C)n3)=NOC21` (stereo not drawn) [Example 20, ethyl 3-[2-(6-methyl-2-pyridyl)ethynyl]-3a,4,5,6a-tetrahydropyrrolo[3,2-d]isoxazole-6-carboxylate], the IC50 in experiment [1] was more than 1000 nM. In addition, the “Fold Inc. Quisq.” value in experiment [2] was found to be 0 fold.
In the case of `CC(C)OC(=O)N1CCC2C(C#Cc3cccc(Cl)c3)=NOC21` (stereo not drawn) [Example 21, isopropyl-3-(3-chlorophenylethynyl)-3a,4,5,6a-tetrahydropyrrolo[3,2-d]isoxazole-6-carboxylate], the “Fold Increase Glutam.” value in experiment [3] is on record as 0 fold.
Consider `O=C(OCC1CC1)N1CCC2C(C#Cc3cccc(Cl)c3)=NOC21` (stereo not drawn) [Example 22, cyclopropylmethyl-3-(3-chlorophenylethynyl)-3a,4,5,6a-tetrahydropyrrolo[3,2-d]isoxazole-6-carboxylate], for which, in experiment [3], the “Fold Increase 1 microM Glutam.” value amounted to 3.11 fold, the “Fold Increase Glutam.” value stood at 4.7 fold and the EC50 is 777 nM.
Take `O=C(OC1CCCC1)N1CCC2C(C#Cc3cccc(Cl)c3)=NOC21` (stereo not drawn) [Example 23, cyclopentyl-3-(3-chlorophenylethynyl)-3a,4,5,6a-tetrahydropyrrolo[3,2-d]isoxazole-6-carboxylate]: the EC50 in experiment [3] is 144 nM.
On to `CC(C)(C)COC(=O)N1CCC2C(C#Cc3cccc(Cl)c3)=NOC21` (stereo not drawn) [Example 24, 2,2-dimethylpropyl-3-(3-chlorophenylethynyl)-3a,4,5,6a-tetrahydropvrrolo[3,2-d]isoxazole-6-carboxylate], for which, in experiment [3], the “Fold Increase 1 microM Glutam.” value was determined as 8.48 fold, the “Fold Increase Glutam.” value is 5.8 fold and the concentration giving a half-maximal response (EC50) came out at 33.9 nM.
On to `CC(C)NC(=O)N1CCC2C(C#Cc3cccc(Cl)c3)=NOC21` (stereo not drawn) [Example 25, 3-(3-chlorophenylethynyl)-N-(propan-2-yl)-3a,4,5,6a-tetrahydropyrrolo[3,2-d]isoxazole-6-carboxamide], for which the “Fold Increase Glutam.” value in experiment [3] worked out at 0 fold.
Turning to `CC(C)(C)NC(=O)N1CCC2C(C#Cc3cccc(Cl)c3)=NOC21` (stereo not drawn) [Example 26, N-t-butyl-3-(3-chlorophenylethynyl)-3a,4,5,6a-tetrahydropyrrolo[3,2-d]isoxazole-6-carboxamide], in experiment [3], the “Fold Increase 1 microM Glutam.” value stood at 2.65 fold, the “Fold Increase Glutam.” value amounted to 5.09 fold and the EC50 was 54.6 nM.
As for `O=C(NC1CCCC1)N1CCC2C(C#Cc3cccc(Cl)c3)=NOC21` (stereo not drawn) [Example 27, 3-(3-chlorophenylethynyl)-N-cyclopentyl-3a,4,5,6a-tetrahydropyrrolo[3,2-d]isoxazole-6-carboxamide], in experiment [3], the “Fold Increase 1 microM Glutam.” value is given as 4.08 fold, the “Fold Increase Glutam.” value amounted to 5.11 fold and the 50% effective concentration (EC50) came to 96.9 nM.
In the case of `O=C(c1ccoc1)N1CCC2C(C#Cc3cccc(Cl)c3)=NOC21` (stereo not drawn) [Example 28], in experiment [3], the “Fold Increase Glutam.” value is reported as 0 fold.
For `Cc1ccc(C(=O)N2CCC3C(C#Cc4cccc(Cl)c4)=NOC32)o1` (stereo not drawn) [Example 29, 3-(3-chlorophenylethynyl)-3a,4,5,6a-tetrahydropyrrolo[3,2-d]isoxazol-6-yl-(5-methylfuran-2-yl)methanone], the “Fold Increase Glutam.” value in experiment [3] is reported as 0 fold.
With `O=C(C1CCCC1)N1CCC2C(C#Cc3cccc(Cl)c3)=NOC21` (stereo not drawn) [Example 30, 3-(3-chlorophenylethynyl)-3a,4,5,6a-tetrahydropyrrolo[3,2-d]isoxazol-6-yl-(cyclopentyl)methanone], in experiment [3], the “Fold Increase 1 microM Glutam.” value turned out to be 3.95 fold, the “Fold Increase Glutam.” value is 3.69 fold and the EC50 came out at 108 nM.
Consider `O=C(C1CCOCC1)N1CCC2C(C#Cc3cccc(Cl)c3)=NOC21` (stereo not drawn) [Example 31, 3-(3-chlorophenylethynyl)-3a,4,5,6a-tetrahydropyrro[3,5,6a-tetrahdrorrolo3,2-d]oxazol-6-yl-(oxan-4-yl)methanone], for which, in experiment [3], the “Fold Increase 1 microM Glutam.” value worked out at 2.14 fold, the “Fold Increase Glutam.” value is recorded as 5.29 fold and the EC50 is 301 nM.
Turning to `CN1CCN(C(=O)N2CCC3C(C#Cc4cccc(Cl)c4)=NOC32)CC1` (stereo not drawn) [Example 32, 3-(3-chlorophenylethynyl)-3a,4,5,6a-tetrahydropyrrolo[3,2-d]isoxazol-6-yl-(4-methylpiperazin-1-yl)methanone], in experiment [3], the “Fold Increase 1 microM Glutam.” value is on record as 1.92 fold, the “Fold Increase Glutam.” value is 2.92 fold and the EC50 is 1100 nM.
`CC(C)CCOC(=O)N1CCC2C(C#Cc3cccc(Cl)c3)=NOC21` (stereo not drawn) [Example 34, 3-methylbutyl-3-(3-chlorophenylethynyl)-3a,4,5,6a-tetrahydropyrrolo[3,2-d]isoxazole-6-carboxylate]: in experiment [3], the EC50 amounted to 542 nM.
As to `O=C(Nc1cccnc1)N1CCC2C(C#Cc3cccc(Cl)c3)=NOC21` (stereo not drawn) [Example 36, 3-(3-chlorophenylethynyl)-N-(pyridin-3-yl)-3a,4,5,6a-tetrahydropyrrolo[3,2-d]isoxazole-6-carboxamide], the “Fold Increase Glutam.” value in experiment [3] is on record as 0 fold.

The record behind these values is US9593127B2, “Heterocyclylalkyne derivatives and their use as modulators of mGluR5 receptors” (RECORDATI IRELAND LTD., priority 2014, dated 2017).
